According to PubChem BioAssay (NCI):
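Dose response: 5 concentrations. Exposure: 48 h. Format: 96-well plates. Endpoint: linear interpolation; highest concentration if not reached. GI50 = concentration required for 50% inhibition of growth. TGI: total growth inhibition.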

Assays:
Test in all cases: NCI-60 cell line screen, 48 h
[1] = tested on: K-562 leukemia
[2] = tested on: LOX IMVI melanoma
[3] = tested on: MCF7 breast
[4] = tested on: NCI-H23 lung
[5] = tested on: NCI/ADR-RES ovarian
[6] = tested on: SF-268 CNS
[7] = tested on: SF-539 CNS
[8] = tested on: SK-OV-3 ovarian
[9] = tested on: SN12C renal
[10] = tested on: UACC-257 melanoma

| Compound | GI50 [1] | TGI [1] | GI50 [2] | TGI [2] | GI50 [3] | TGI [3] | GI50 [4] | TGI [4] | GI50 [5] | TGI [5] | GI50 [6] | TGI [6] | GI50 [7] | TGI [7] | GI50 [8] | TGI [8] | GI50 [9] | TGI [9] | GI50 [10] | TGI [10] |
| --- | --- | --- | --- | --- | --- | --- | --- | --- | --- | --- | --- | --- | --- | --- | --- | --- | --- | --- | --- | --- |
| CN(C)CC[C@H](CSc1ccccc1)Nc1ccc(S(=O)(=O)NC(=O)c2ccc(N3CCN(Cc4ccccc4-c4ccc(Cl)cc4)CC3)cc2)cc1[N+](=O)[O-] | 5.03 µM | > 100 µM | 2.77 µM | > 100 µM | 3 µM | > 41.3 µM | 9.07 µM | > 100 µM | > 61.6 µM | > 100 µM | 5.84 µM | > 100 µM | 36.5 µM | > 100 µM | 4.58 µM | 16.9 µM | 3.56 µM | > 56.7 µM | 1.79 µM | 6.16 µM |
| O=C(Nc1ccc(Br)cc1F)c1cc(Cl)ccc1O | 0.489 µM | > 50.7 µM | 0.501 µM | 3.76 µM | 1.84 µM | > 100 µM | 0.492 µM | 5.14 µM | 0.749 µM | 5.67 µM | 0.676 µM | 9.96 µM | 0.594 µM | 5.85 µM | 0.441 µM | 2.2 µM | 0.491 µM | 5.68 µM | 0.731 µM | 4.82 µM |
| O=C(/C=C/c1ccc[nH]1)c1ccc(-n2ccc(C(F)(F)F)n2)cc1 | 38.6 µM | > 100 µM | > 100 µM | > 100 µM | > 82.2 µM | > 100 µM | > 100 µM | > 100 µM | > 100 µM | > 100 µM | 3.8 µM | > 100 µM | 2.53 µM | > 100 µM | > 100 µM | > 100 µM | 10.1 µM | > 100 µM | > 100 µM | > 100 µM |
| CCOC(=O)Nc1cc2c(c(N)n1)N=C(c1ccccc1)CO2 | 0.0336 µM | 34 µM | 0.368 µM | > 100 µM | 0.1 µM | 21 µM | 0.569 µM | 21.4 µM | 0.061 µM | 21.5 µM | 0.325 µM | 15.8 µM | 0.195 µM | 0.789 µM | 0.289 µM | 9.4 µM | 0.84 µM | 31.1 µM | 17.5 µM | 99.6 µM |
| C=CCC1(c2ccc(OC)cc2)C=CC(=O)CC1 (stereo not given) | – | > 100 µM | – | > 100 µM | – | > 100 µM | – | > 100 µM | – | > 100 µM | – | > 100 µM | – | > 100 µM | – | > 100 µM | – | > 100 µM | – | > 100 µM |
| NC(N)=N/N=C/c1c(Cl)cccc1Cl | 24.1 µM | 63.1 µM | 14.4 µM | 30.1 µM | 17.2 µM | 41.5 µM | 36.5 µM | > 100 µM | 28.9 µM | > 100 µM | 23.9 µM | 89.4 µM | 23.7 µM | > 100 µM | 41.6 µM | > 100 µM | 36.6 µM | > 100 µM | 12.3 µM | 27.3 µM |
| CN1CCN(c2ccc(Nc3cc(-c4cccc(-n5ccc6cc(C7CC7)cc(F)c6c5=O)c4CO)cn(C)c3=O)nc2)CC1 | 3.17 µM | 12 µM | 3.4 µM | 12.7 µM | 3.24 µM | 18.6 µM | 13.6 µM | 37.3 µM | 8.03 µM | 33.4 µM | 5.58 µM | 20.9 µM | 1.82 µM | 3.63 µM | 14.6 µM | 29.5 µM | 3.35 µM | 13.9 µM | 2.28 µM | 5.03 µM |
| COC(=O)c1c2c(c(C)[n+]([O-])c1C)C(=O)C=C(NCc1ccc(F)cc1)C2=O | 0.251 µM | 5.04 µM | 0.224 µM | 2.09 µM | 0.276 µM | 1.04 µM | 0.733 µM | 3.41 µM | 0.432 µM | 5.38 µM | 1.38 µM | 4.66 µM | 0.641 µM | 1.87 µM | 2.53 µM | 6.45 µM | 0.345 µM | 1.41 µM | 0.258 µM | 0.822 µM |
| COC(=O)c1ccc2c(c1)C(=O)c1c-2n(CCCN=[N+]=[N-])c(=O)c2cc(OC)c(OC)cc12 | > 100 µM | > 100 µM | > 100 µM | > 100 µM | > 100 µM | > 100 µM | 15.6 µM | > 100 µM | > 100 µM | > 100 µM | > 100 µM | > 100 µM | > 100 µM | > 100 µM | 20.8 µM | > 100 µM | > 100 µM | > 100 µM | > 100 µM | > 100 µM |
| O=C(NC[C@H](O)CN1CCc2ccccc2C1)c1cc(NC2COC2)ncn1 | 20.3 µM | > 100 µM | 7.21 µM | 23.3 µM | 3.93 µM | > 100 µM | 19.3 µM | > 100 µM | 15.9 µM | 57.9 µM | 14.9 µM | 97.5 µM | 5.09 µM | 45.6 µM | 77.2 µM | > 100 µM | 18.5 µM | > 100 µM | 19.8 µM | 90.4 µM |
| Cc1nc(Nc2cccnc2)sc1C(=O)/C=C/c1ccc(F)cc1 | 2.78 µM | > 100 µM | 2.36 µM | 6.52 µM | 2.29 µM | > 100 µM | 3.93 µM | 20.7 µM | 3.24 µM | > 100 µM | 3.57 µM | 31.9 µM | 2.46 µM | 7.26 µM | 3.85 µM | > 100 µM | 3.17 µM | > 100 µM | 5.87 µM | 28.6 µM |
| C[C@@H]1C[C@@H]([C@@H](CC2CC(=O)NC(=O)C2)OC(=O)CC(=O)c2ccccc2)C(=O)[C@@H](C)C1 | 0.682 µM | > 100 µM | 0.646 µM | > 100 µM | 0.645 µM | > 100 µM | 0.545 µM | > 80.6 µM | 0.689 µM | > 100 µM | 0.908 µM | > 32 µM | 0.521 µM | 16.6 µM | 0.411 µM | > 43.7 µM | 0.15 µM | > 39.3 µM | 0.358 µM | 13 µM |
| Cc1nnc(Nc2ccc(NC(=O)Nc3ccc(Cl)cc3)cc2)c2ccccc12 | 2.2 µM | 4.67 µM | 1.75 µM | 3.27 µM | 2.21 µM | 10.9 µM | 2.38 µM | 6.31 µM | 3.63 µM | 14.9 µM | 2.57 µM | 7.17 µM | 1.61 µM | 3.32 µM | 2.61 µM | 6.59 µM | 2.86 µM | 9.41 µM | 2.39 µM | 5.3 µM |
| COc1cc(C(=O)N2CCN(C(=O)c3cc(OC)c(OC)c(OC)c3)C2=S)cc(OC)c1OC | 24.9 µM | > 100 µM | 15.4 µM | 30.7 µM | 5.23 µM | 27.6 µM | 18.7 µM | 37.5 µM | 26.8 µM | 74.5 µM | 11.5 µM | 26.1 µM | 14.5 µM | 30.2 µM | 20.2 µM | 52.7 µM | 17.1 µM | 35.7 µM | 21.7 µM | 43.9 µM |
| CC(=O)Nc1ccc(-c2csc(Nc3cccc(-c4csc(C)n4)c3)n2)cc1 | 0.385 µM | 9.55 µM | 0.375 µM | 10.1 µM | 0.68 µM | > 50 µM | 3.31 µM | > 27.7 µM | 0.642 µM | 6.84 µM | 4.38 µM | > 27.1 µM | 1.1 µM | 6.83 µM | 2.38 µM | 19.1 µM | 1.36 µM | 6.78 µM | 4.63 µM | 21.5 µM |
| O=C(Cc1ccc(F)c(Cl)c1)Nc1cc(C2(C(F)(F)F)CC2)nn1CC1CCCCC1 | 4.28 µM | > 15 µM | 4.58 µM | > 15 µM | 4.01 µM | > 15 µM | 3.52 µM | 12 µM | 3.88 µM | > 15 µM | 3.95 µM | > 15 µM | 4.86 µM | > 15 µM | 3.24 µM | 11 µM | 4.46 µM | > 15 µM | 3.38 µM | 11.2 µM |
| O=C(c1ccco1)c1c(C(F)(F)F)nc2ccc(Cl)cc2[n+]1[O-] | 33.2 µM | > 100 µM | > 100 µM | > 100 µM | > 100 µM | > 100 µM | 69.5 µM | > 100 µM | > 100 µM | > 100 µM | > 100 µM | > 100 µM | > 100 µM | > 100 µM | > 100 µM | > 100 µM | > 100 µM | > 100 µM | > 100 µM | > 100 µM |
